Measurements reported in US9353090B2, “Heterocyclic carboxylic acids as activators of soluble guanylate cyclase” (Boehringer Ingelheim International GmbH, priority 2014, dated 2016).
Converted amounts (≈) assume the structure as drawn.

Assays:
[1] = Human liver microsome (HLM) metabolic stability assay; format: in vitro ADME; settings: human liver microsomes
Outline: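 Remaining parent measured by LC/MS/MS (ESI, MRM) at 5, 15, 30 and 60 min relative to 0 min. Incubation: 1 uM compound, HLMs, NADPH-started, 37° C., 60 min total, single replicate. Slope of ln(% remaining) gives t1/2 = 0.693/slope, then CLint, CLh and % Qh.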

physchem = settings: kinetic from dmso stock
[2] = molecular target: human soluble guanylate cyclase alpha 1 and beta 1 subunits (sGC) (Homo sapiens (Human), UniProt Q02108+Q02153); assay: sGC cellular activator assay (cGMP, HTRF), in the presence and absence of 50% human serum; format: cell-based; settings: CHO cells stably expressing human sGC alpha 1/beta 1, preincubated with 40 microM ODQ; cGMP by HTRF; Table 2 does not state whether with or without 50% human serum
Outline: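 First, CHO-sGC (human α1β1) cells get 1 h ODQ at 40 microM with IBMX and 0.1% BSA. Finally, cGMP is quantified by HTRF and EC50 computed.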

[3] = pH 2.2, aqueous buffer, Solubility (pH 2.2)
[4] = pH 4.5, aqueous buffer, Solubility (pH 4.5)
[5] = pH 6.8, aqueous buffer, Solubility (pH 6.8)

Sequence of human soluble guanylate cyclase alpha 1 and beta 1 subunits (sGC) (Q02108 whole entry partner): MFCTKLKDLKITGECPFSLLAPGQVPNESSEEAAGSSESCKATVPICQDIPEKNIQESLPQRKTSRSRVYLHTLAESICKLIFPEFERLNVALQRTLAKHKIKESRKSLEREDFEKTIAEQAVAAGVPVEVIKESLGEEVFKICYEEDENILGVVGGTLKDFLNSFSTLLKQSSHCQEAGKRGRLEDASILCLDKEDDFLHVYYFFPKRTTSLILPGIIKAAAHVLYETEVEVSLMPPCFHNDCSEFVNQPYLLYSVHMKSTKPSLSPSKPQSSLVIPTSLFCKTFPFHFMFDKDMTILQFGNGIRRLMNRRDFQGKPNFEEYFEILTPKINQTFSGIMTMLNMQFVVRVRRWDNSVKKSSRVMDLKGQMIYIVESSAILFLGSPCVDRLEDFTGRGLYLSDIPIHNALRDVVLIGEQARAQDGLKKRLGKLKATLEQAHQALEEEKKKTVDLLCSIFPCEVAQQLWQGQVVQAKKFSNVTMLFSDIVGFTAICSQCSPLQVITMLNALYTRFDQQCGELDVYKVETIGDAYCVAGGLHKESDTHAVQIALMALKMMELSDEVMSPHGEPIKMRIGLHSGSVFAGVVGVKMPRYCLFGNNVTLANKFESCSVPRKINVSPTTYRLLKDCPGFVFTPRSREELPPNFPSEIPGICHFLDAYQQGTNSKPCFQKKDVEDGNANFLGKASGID
Sequence of human soluble guanylate cyclase alpha 1 and beta 1 subunits (sGC) (Q02153 whole entry): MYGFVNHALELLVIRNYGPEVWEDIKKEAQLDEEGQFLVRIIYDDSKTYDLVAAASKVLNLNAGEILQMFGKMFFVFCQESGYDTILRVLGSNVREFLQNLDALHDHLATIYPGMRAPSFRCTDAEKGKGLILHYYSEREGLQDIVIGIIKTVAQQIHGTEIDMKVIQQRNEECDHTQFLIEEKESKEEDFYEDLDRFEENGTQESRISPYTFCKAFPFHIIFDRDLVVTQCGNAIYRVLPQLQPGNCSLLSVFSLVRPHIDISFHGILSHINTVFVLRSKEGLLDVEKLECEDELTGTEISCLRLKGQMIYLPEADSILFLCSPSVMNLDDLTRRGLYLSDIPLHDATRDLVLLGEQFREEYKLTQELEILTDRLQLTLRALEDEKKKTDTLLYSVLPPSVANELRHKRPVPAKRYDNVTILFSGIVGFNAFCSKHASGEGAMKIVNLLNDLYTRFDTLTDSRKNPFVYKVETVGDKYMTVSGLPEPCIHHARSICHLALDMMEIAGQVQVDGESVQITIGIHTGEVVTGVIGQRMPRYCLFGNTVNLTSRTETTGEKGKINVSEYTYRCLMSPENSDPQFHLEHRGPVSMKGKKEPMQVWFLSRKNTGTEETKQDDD

Metabolic stability (Qh %), % hepatic blood flow [1] [%] | solubility at 24 h (physchem; [3]) [µg/mL] | solubility at 24 h (physchem; [4]) [µg/mL] | solubility at 24 h (physchem; [5]) [µg/mL] | EC50 [2] [nM] | Compound
<24 | 128 (≈ 220 µM) | 83.9 (≈ 145 µM) | 88.7 (≈ 153 µM) | 14 | COc1cc(COc2c(C)cccc2-c2csc(N3CC[C@@H](C(=O)O)[C@@H](OC)C3)n2)cc2c1CN(C1COC1)CC2 [Compound 209]
<24 | 136 (≈ 230 µM) | 88.2 (≈ 149 µM) | 75 (≈ 126 µM) | 16 | COc1cc(COc2c(C)cccc2-c2csc(N3CC[C@@H](C(=O)O)[C@@H](OC)C3)n2)cc2c1CN([C@@H]1CCOC1)CC2 [Compound 210]
<24 | 133 (≈ 224 µM) | 83.4 (≈ 140 µM) | 76.5 (≈ 129 µM) | 18 | COc1cc(COc2c(C)cccc2-c2csc(N3CC[C@@H](C(=O)O)[C@@H](OC)C3)n2)cc2c1CN([C@H]1CCOC1)CC2 [Compound 211]
<24 | 136 (≈ 221 µM) | 96.6 (≈ 157 µM) | 72.7 (≈ 118 µM) | 34 | COC[C@H]1N(c2cccc(-c3cccc(F)c3OCc3ccc4c(c3C)CCN(C3CCOCC3)CC4)n2)C[C@@H]2C[C@@]21C(=O)O [Compound 212]
<24 | 144 (≈ 239 µM) | 109 (≈ 181 µM) | 81.3 (≈ 135 µM) | 134 | COC[C@H]1N(c2cccc(-c3cccc(F)c3OCc3cc(C)c4c(c3)CCN(C3CCOCC3)C4)n2)C[C@@H]2C[C@@]21C(=O)O [Compound 213]
<24 | 118 (≈ 207 µM) | 108 (≈ 189 µM) | 87.9 (≈ 154 µM) | 243 | Cc1cccc(-c2cccc(N3CC4OCC3C4C(=O)O)n2)c1OCc1ccc2c(c1C)CCN(C1CCOCC1)C2 (stereo not shown) [Compound 214]
<24 | 143 (≈ 233 µM) | 135 (≈ 221 µM) | 129 (≈ 211 µM) | 10 | COC[C@H]1N(c2cccc(-c3cccc(C)c3OCc3cc(C)c4c(c3C)CCN(C3CCOCC3)C4)n2)C[C@@H]2C[C@@]21C(=O)O [Compound 215]
39 | 144 (≈ 240 µM) | 139 (≈ 231 µM) | 134 (≈ 223 µM) | 14 | COC[C@H]1N(c2cccc(-c3cccc(C)c3OCc3cc(F)c4c(c3)CCN(C3CCOCC3)C4)n2)C[C@@H]2C[C@@]21C(=O)O [Compound 216]
44 | 167 (≈ 274 µM) | 162 (≈ 266 µM) | 158 (≈ 259 µM) | 40 | COC[C@H]1N(c2cccc(-c3cccc(C)c3OCc3cc(C#N)c4c(c3)CCN(C3CCOCC3)C4)n2)C[C@@H]2C[C@@]21C(=O)O [Compound 217]
<24 | 144 (≈ 241 µM) | 139 (≈ 233 µM) | 134 (≈ 224 µM) | 81 | COC[C@H]1N(c2cccc(-c3cc(C)ccc3OCc3ccc4c(c3C)CCN(C3CCOCC3)C4)n2)C[C@@H]2C[C@@]21C(=O)O [Compound 218]
<24 | 146 (≈ 245 µM) | 142 (≈ 238 µM) | 137 (≈ 229 µM) | 263 | COC[C@H]1N(c2cccc(-c3cc(C)ccc3OCc3cc(C)c4c(c3)CCN(C3CCOCC3)C4)n2)C[C@@H]2C[C@@]21C(=O)O [Compound 219]
34 | 167 (≈ 256 µM) | 136 (≈ 209 µM) | 133 (≈ 203 µM) | 9 | COC[C@H]1N(c2cccc(-c3cccc(C(F)(F)F)c3OCc3cc(C)c4c(c3)CCN(C3CCOCC3)C4)n2)C[C@@H]2C[C@@]21C(=O)O [Compound 220]
<24 | 155 (≈ 251 µM) | 144 (≈ 233 µM) | 132 (≈ 213 µM) | 12 | COC[C@H]1N(c2cccc(-c3cccc(Cl)c3OCc3cc(C)c4c(c3)CCN(C3CCOCC3)C4)n2)C[C@@H]2C[C@@]21C(=O)O [Compound 221]
<24 | 132 (≈ 227 µM) | 130 (≈ 222 µM) | 119 (≈ 203 µM) | 23 | COC[C@H]1N(c2cccc(-c3cccc(C)c3OCc3cc(C)c4c(c3)CN(C3CCOCC3)C4)n2)C[C@@H]2C[C@@]21C(=O)O [Compound 222]
<24 | 145 (≈ 248 µM) | 140 (≈ 239 µM) | 132 (≈ 226 µM) | 23 | COC[C@H]1N(c2cccc(-c3cccc(C)c3OCc3ccc4c(c3C)CN(C3CCOCC3)C4)n2)C[C@@H]2C[C@@]21C(=O)O [Compound 223]
31 | 150 (≈ 257 µM) | 145 (≈ 249 µM) | 136 (≈ 233 µM) | 51 | COC[C@H]1N(c2cccc(-c3cccc(C)c3OCc3ccc4c(c3)CN(C3CCOCC3)CC4)n2)C[C@@H]2C[C@@]21C(=O)O [Compound 224]
25 | 136 (≈ 222 µM) | 135 (≈ 220 µM) | 129 (≈ 211 µM) | 5 | COC[C@H]1N(c2cccc(-c3cccc(C)c3OCc3ccc4c(c3)[C@@H](C)CN(C3CCOCC3)CC4)n2)C[C@@H]2C[C@@]21C(=O)O [Compound 225]
<24 | 145 (≈ 237 µM) | 142 (≈ 231 µM) | 134 (≈ 219 µM) | 6 | COC[C@H]1N(c2cccc(-c3cccc(C)c3OCc3ccc4c(c3)[C@H](C)CN(C3CCOCC3)CC4)n2)C[C@@H]2C[C@@]21C(=O)O [Compound 226]
30 | 142 (≈ 228 µM) | 128 (≈ 205 µM) | 138 (≈ 221 µM) | 9 | COC[C@H]1N(c2cccc(-c3cccc(C(F)(F)F)c3OCc3cc(C)c4c(c3)CCN(C3COC3)C4)n2)C[C@@H]2C[C@@]21C(=O)O [Compound 227]
<24 | 148 (≈ 239 µM) | 114 (≈ 183 µM) | 107 (≈ 172 µM) | 6 | CCO[C@@H]1CN(c2nc(-c3cccc(C)c3OCc3cc4c(c(OC)c3)CN(C3CCOCC3)CC4)cs2)CC[C@@H]1C(=O)O [Compound 228]
<24 | 122 (≈ 196 µM) | 116 (≈ 187 µM) | 114 (≈ 184 µM) | 4 | CCO[C@@H]1CN(c2nc(-c3cc(C)ccc3OCc3cc4c(c(OC)c3)CN(C3CCOCC3)CC4)cs2)CC[C@@H]1C(=O)O [Compound 229]
83 | 131 (≈ 213 µM) | 128 (≈ 209 µM) | 120 (≈ 194 µM) | 6 | CCO[C@@H]1CN(c2cccc(-c3cccc(C)c3OCc3cc4c(c(OC)c3)CN(C3CCOCC3)CC4)n2)CC[C@@H]1C(=O)O [Compound 230]
58 | 126 (≈ 205 µM) | 126 (≈ 205 µM) | 121 (≈ 196 µM) | 13 | CCO[C@@H]1CN(c2cccc(-c3cc(C)ccc3OCc3cc4c(c(OC)c3)CN(C3CCOCC3)CC4)n2)CC[C@@H]1C(=O)O [Compound 231]
